Among the data in BindingDB's records for PubMed 33721669 (National Institute of Pharmaceutical Education and Research …, 2021) are IC50 values, retold here.

A short description of experiment [1]: Inhibition of PDK1 (unknown origin) by SelectScreen kinase assay.
A short description of experiment [2]: Inhibition of VEGFR-2 (unknown origin) induced tube formation in HUVECs cocultured with fibroblasts measured after 11 days with media renewing every 3 days by staining based analysis.
Experiment [3] has as its target Cyclin-dependent kinase 2 (Homo sapiens, UniProt P24941). The experiment can be described thus: Inhibition of CDK2 (unknown origin).

SMILES strings stand for the structures.

For `COc1cc2c(cc1OC)CN(CC(=O)Nc1ccc3c(c1)/C(=C/c1cnc[nH]1)C(=O)N3)CC2`, 98000 nM corresponded to half-maximal inhibition in experiment [1] (IC50).
Consider `CCN(CC)CCN1Cc2[nH]c(/C=C3\C(=O)Nc4ccc(Br)cc43)c(C)c2C1=O`, for which, in experiment [2], the IC50 – broadly, the concentration needed to halve the response being measured – is 179 nM.
Compound `O=C1Nc2ccc(Br)cc2/C1=N/NC(=O)c1cc2cc(Br)ccc2o1` had a 50% inhibitory concentration (IC50) in experiment [3] of 38 nM.
Regarding `COc1ccc2c(c1)/C(=N/NC(=O)c1cc3cc(Br)ccc3o1)C(=O)N2`, the IC50 in experiment [3] amounted to 53 nM.
